Laboratory results: US10576145B2, “CD200 inhibitors and methods of use thereof” (REGENTS OF THE UNIVERSITY OF MINNESOTA, priority 2014, dated 2020)
Entries after “also recorded” stand apart in the source; their conditions may differ.

Experiments:
[1] = system: GL261 tumor bearing mice; assay: GL261 glioma model: tumor lysate vaccine +/- antagonist, tumor growth by imaging and survival; type: in vivo, C57BL/6 mice; conditions: for Tumor growth: GL261, tumor lysate vaccine + antagonist vs tumor lysate alone or saline, weekly imaging; for Survival: GL261 glioma model, tumor lysate vaccine + antagonist
Experimental: FIGS. 4A-4C. FIG. 4A) GL261 tumor bearing mice were inoculated with 50 μg of antagonist 6059 one day prior to vaccination with tumor lysate (65 μg)+/−the antagonist 6059 (50 μg). FIG. 4B) Mice were imaged weekly for tumor growth. The following groups were studied: saline (1), tumor lysate (2), and tumor lysate+6059 (3). FIG. 4C) Percent survival post inoculation for saline (1), tumor lysate (2), and tumor lysate+6059 (3) groups.
FIGS. 5A-5B. FIG. 5A) GL261 tumor bearing mice were inoculated with 10 μg of 6059 on day 2 into the tumor site then with 50 μg of antagonist 6059 one day prior to vaccination with tumor lysate (65 μg)+the antagonist 6059 (50 μg). FIG. 5B) Mice were imaged weekly for tumor growth. The following groups were studied: saline (1), tumor lysate+6059 (2), and CNS+tumor lysate+6059 (3) groups.
Whether vaccination with CD200R antagonists could enhance the survival of tumor-bearing mice was also studied. […] GL261 tumor bearing mice were vaccinated weekly with saline, tumor lysates (TL) or tumor lysates+an antagonist (4004, 4013, 6059).
Tumor-bearing mice were inoculated in the brain with 10 μg of the inhibitor 6059 at the same coordinates at which the tumor was injected two days previously. This was followed by weekly injections of tumor lysate+inhibitor (FIGS. 5A-5B).
(§1) Tumors were implanted into female C57BL/6 mice (6-8 wk old) (Jackson Laboratory) and maintained in a pathogen-free facility according to the guidelines of the University of Minnesota Animal Care and Use Committee. The GL261 orthotopic transplant model was established in C57BL/6 (B6) mice by inoculation with 15,000 GL261-Luc^+ cells in 1 μl of saline. Tumors were implanted stereotactically into the right striatum; coordinates were 2.5 mm lateral, 0.5 mm anterior of bregma, and 3 mm deep from the cortical surface of the brain^19. Tumor burden was determined by bioluminescent imaging. Light emitted from the tumors was quantified using Living Image software (Xenogen) and expressed as photons per second per centimeter squared per steradian (p/s/cm^2/sr). GL261 cells for tumor lysate vaccines were cultured in neural stem cell media consisting of DMEM/F12 (1:1) with L-glutamine, sodium bicarbonate, penicillin/streptomycin (100 U/ml), B27 and N2 supplements (Life Technologies), and 0.1 mg/ml Normocin (Invivogen). Cultures were maintained at 5% 02 and supplemented with 20 ng/ml EGF and FGF semiweekly (R&D Systems, Minneapolis, Minn.). […] Mice were euthanized when tumors reached 1000 mm^3. […] Tumor cells used to establish both models were cultured in DMEM containing 10% FBS, penicillin/streptomycin (100 U/ml), and 0.1 mg/ml Normocin (Invivogen) in atmospheric oxygen.
Tumor lysates were prepared by dissociating tumor cells with non-enzymatic dissociation solution (Sigma). Cells were then washed 3 times with PBS, re-suspended in 500 μL PBS, and frozen overnight at −80° C. Cells were then lysed by five freeze/thaw cycles of freezing in liquid nitrogen and thawing in a 55° C. water bath. Cell debris was pelleted by centrifugation at 14,000 RCF, and the protein concentration of the supernatant was determined using a Bradford assay. Lysates were stored at −80° C. until use. Each vaccine was prepared on the day of vaccination and consisted of 65 μg of protein tumor lysate and 10 μg Poly:ICLC (Oncovir, Inc.), with or without 50 μg of the 6059 peptide antagonist, in a final volume of 100 μL injected intradermally in the back of the neck. For survival studies, vaccines were administered weekly starting three days post-tumor implantation for a total of 6 doses. In T cell priming experiments, CD8 T-cell priming experiments, animals were vaccinated intradermally on four consecutive days with 100 μg Ovalbumin (OVA) and 10 μg Poly:ICLC, and once more on day eleven^19.

[2] = system: EMT6 tumor bearing mice; assay: EMT6 breast carcinoma model: tumor lysate + CpG +/- competitive inhibitor, survival; type: in vivo, BALB/c mice
Experimental: FIG. 6. Percent survival of mice inoculated with 1×10^6 EMT6 cells. To determine if our competitive inhibitors worked in other tumor models, mice were inoculated in the fat pad with 1×10^6 EMT6 cells. Specifically, mice were vaccinated with 65 μg of EMT6 tumor lysates+50 μg of adjuvant CpG and 50 μg of different completive inhibitors (6059, 4004, 4013 and 6061) and monitored for survival. Saline and tumor lysate+adjuvant CpG were used as controls.
FIGS. 19A-19B. Select CD200 antagonists enhance survival. (FIG. 19A) EMT6 tumor bearing mice were vaccinated with tumor lysate, CpG+/−CD200 antagonist 4004, 4013 or 6059. […] Log-rank analysis was used for survival.
as §1

[3] = system: CD200 receptor; assay: CD11b cells of wild type or CD200 receptor knock out mice pulsed with OVA+Poly:ICLC +/- P1A12, OT-I cells added, IFN gamma; type: cell-based; conditions: wild type vs CD200 receptor knock out CD11b cells, 48 hour incubation; listed as P1A12
Experimental: FIG. 24. […] CD11b cells isolated for wild type or CD200 receptor knock out mice were pulsed with OVA+Poly:ICLC+/−P1A12 inhibitor. Scrambled inhibitor was use as a control. Cells were washed and OT-I Cells were added. A. Supernatants were analyzed for IFN gamma following 48 hour incubation.
(§2) Mice were vaccinated as described in FIGS. 4A-4C with peptide inhibitor P1A12. Blood from mice vaccinated with tumor lysate+CpG or tumor lysate+CpG+inhibitor were analyzed for MDSC expansion (FIG. 23). […] CD11b cells isolated for wild type or CD200 receptor knock out mice were pulsed with OVA+Poly:ICLC+/−P1A12 inhibitor, and scrambled inhibitor was used as a control (FIG. 24). Cells were washed and OT-I Cells were added. Supernatants were analyzed for IFN gamma following 48 hour incubation.

[4] = system: mice; assay: MDSC expansion in blood of mice vaccinated with tumor lysate + CpG +/- inhibitor; type: in vivo; conditions: tumor lysate+CpG+inhibitor vs tumor lysate+CpG, listed as P1A12
Experimental: FIG. 23. […] Mice were vaccinated as described in FIG. 4 with peptide inhibitor P1A12. Blood from mice vaccinated with tumor lysate+CpG or tumor lysate+CpG+inhibitor were analyzed for MDSC expansion.
as §2

[5] = system: splenocytes; assay: Splenocytes pulsed with OVA + antagonist, OT-1 T cells added, cytokine production by flow cytometric bead array; type: cell-based; conditions: pulsed 24 hours, 48 hours with OT-1 T cells
Experimental: FIGS. 11A-11B. Splenocytes were pulsed with OVA+an inhibitor peptide and incubated for 24 h. Following incubation, cells were washed, purified OT1 were added to wells and incubated for an additional 48 hrs then analyzed for FIG. 11A) TNFa and IL-6 production; and FIG. 11B) IL-2 and IL-17 production. Error bars indicate +/−SEM (n=4/group; *P<0.05; ** P<0.01).
Whether the different antagonists described by Gorczynski et. al. (J Surg Res 2008; 145(1): 87-96) could modulate or reverse the suppressive effects of the tumor microenvironment was also investigated. It was concluded that different antagonists either act through different CD200R isoforms or have different biological effects on the same receptor. These conclusions were supported by experiments where splenocytes were pulsed with OVA+selected CD200R antagonists (6061, 6069, 4004, 4006, 4013) for 24 hours. The splenocytes were then washed and cultured for 48 hours with the addition of OT-1 T cells. The cultures were then assessed for cytokine production using a flow cytometric bead array. […] These experiments support the hypothesis that exosomes express the CD200 protein thereby inhibiting the ability to prime a T cell response in the draining lymph nodes of glioma bearing mice. Other antagonists were similarly evaluated.

| Sequence | Tumor growth [1] | Survival [2] | Cytokine profile (TNFa, IL-6, IL-2, IL-17) [5] | also measured |
| --- | --- | --- | --- | --- |
| LFNTFGSQKVSGT [Antagonist 4013] | tumors grow faster in mice vaccinated with saline or tumor lysate alone compared to mice vaccinated with tumor lysate plus an antagonist | results translated to a breast carcinoma (EMT6) model; also recorded: enhanced survival benefit; also recorded: significantly extended survival benefit |  |  |
| VTWQKKKAVSPANM [Antagonist C-A12] |  |  |  | Action on the CD200 receptor (IFN gamma in supernatants) [3]: acts as an agonist for the CD200 receptor; MDSC expansion in vivo [4]: inhibits MDSC expansion in vivo; Survival [1]: even greater survival; Survival ([1]; listed as P1-A12): enhances survival |
| TASLRCSLKTSQE [Antagonist 4004] | tumors grow faster in mice vaccinated with saline or tumor lysate alone compared to mice vaccinated with tumor lysate plus an antagonist | results translated to a breast carcinoma (EMT6) model; also recorded: enhanced survival benefit; also recorded: significantly extended survival benefit | different cytokine profiles |  |
| SQKVSGTACLTLY [Antagonist 4006] |  |  | different cytokine profiles |  |
| RCSLKTSQE [Antagonist 6061] |  | significantly extended survival benefit |  |  |
